Results reported in patent US12473310B2, “Vitamin D3 phosphate and pharmaceutically acceptable salts thereof, pharmaceutical compositions comprising the compound and methods for preparing the compound” (King's College London, priority 2020, dated 2025).
Counter-ions that a name gives are not always drawn.

How the values were obtained:
[1] = solubility of disodium salt in water by HPLC; format: physicochemical; details: thermodynamic from solid, distilled water
Method: Cholecalciferol phosphate disodium salt was added into 1.5 mL distilled water until it generated precipitation. The supersaturated solution was filtered into a glass bottle through a 0.45 μm syringe filter, diluted in water (1:100), then MeOH was added to make MeOH:water (90:10), and injected into the HPLC.

[2] = physchem; format: physicochemical; details: thermodynamic from solid, visual
Method: (§1) An aliquot of 2.5 mg cholecalciferol and 2.5 mg cholecalciferol phosphate disodium salt prepared according to Example 1 were weighed into glass vials and 100 μL aliquots of the test solvents with different dielectric constants; water, MeOH:water (90:10), ethylene glycol, methanol (MeOH), propylene glycol (PG), ethanol (EtOH), poly(ethylene glycol) (PEG-400), and mineral oil were added until the sample was fully dissolved visually. A precise determination of the solubility was undertaken using high-performance liquid chromatography (HPLC). In the HPLC solubility studies an excess amount of cholecalciferol and cholecalciferol phosphate was added into 2 mL of each test solvent; water, MeOH:water (90:10), MeOH, and PG, EtOH and mineral oil. The solutions were left stirring overnight at room temperature, (RT), 22° C. The saturation of the solutions was confirmed by the visual appearance of crystals and the drug suspensions were filtered through 0.2 μm syringe filters, diluted, and the concentration of each sample was assessed using the HPLC method detailed below.

[3] = in vitro; format: in vitro ADME, porcine; details: for total penetration into / deposited in the skin: vehicle 100% PG, 0.25 mm porcine skin
Method: Donor solutions (2.5 mg/mL, 100,000 IU), which is an infinite dose, containing cholecalciferol and cholecalciferol phosphate disodium prepared according to Example 1, were compared to PG:EtOH (50:50) for cholecalciferol and 100% water for cholecalciferol phosphate.
The Franz diffusion cell was used to investigate the permeation of cholecalciferol and cholecalciferol phosphate through porcine skin. Fresh white adult porcine ears were obtained and any damaged ears were discarded. The ears were removed from the carcass after hair removal. The ears were washed with deionised water, the residual water on the skin surface was immediately removed by blotting with a tissue, visible hairs were trimmed carefully, and the ears were stored at −20° C. for no longer than 30 days until required. On the day of the experiment the skin was defrosted, and the subcutaneous fat was removed using a scalpel. The tissue was cut into the appropriate size sections (0.25 mm thick, 2.19±0.21 cm^2) to be mounted with the stratum corneum (SC) facing the donor compartment between donor and receiver compartments of Franz diffusion cells. The pieces of skins were sealed between the two compartments using parafilm, and 12 mm magnetic follows was placed into the receiver compartment. The receiver compartment in the Franz diffusion cell was filled with 100% PG for cholecalciferol; and a 1:1 mixture of PG: (MeOH:PBS ([…]), 90:10) for cholecalciferol phosphate (9.23±0.23 mL). The cell sealing was confirmed by cell inversion and monitoring solvent back diffusion. Sink conditions were maintained throughout the transport assays. The temperature of the Franz diffusion was maintained at 37° C. in a water bath, to set up the skin temperature 32° C. (Maddock, W. G. and Coller, F. A., ([…]) The role of the extremities in the dissipation of heat, American Journal of Physiology-Legacy Content, 106(3), 589-596). After 1 h equilibration at 37° C. in the water bath, 1 mL of receiver fluid was taken at time points 0 in 30 min and a fresh 100% PG was replaced to keep the volume content, and 1 mL of each formulation was applied in the donor compartment. After 24 h, the receiver fluid was collected and analysed by HPLC methods.
At the end of the transport studies, the Franz cells were dismantled, and the donor solution was collected into bottles containing 10 mL of extraction fluid; PG:EtOH (50:50) for cholecalciferol and MeOH:water (90:10) for cholecalciferol phosphate, by wiping the surface of the skin and inside of the donor compartment with two wet and then two dry cotton buds. The SC was removed from the epidermis by tape stripping. A 300 mg weight was used onto the skin to press the adhesive tape to apply defined pressure for 10 sec. A piece of tape that can cover the diffusion area was used to remove the SC. The first two pieces of tape were added into the donor solution, as the first 2 strips were considered as part of the applied formulation and its removal was part of the formulation wash off (Primo, F. L. et al., (2008) In vitro studies of cutaneous retention of magnetic nanoemulsion loaded with zinc phthalocyanine for synergic use in skin cancer treatment, Journal of Magnetism and Magnetic Materials, 320(14), e211-e214.; Sheth, N. V. et al., (1987) Measurement of the stratum corneum drug reservoir to predict the therapeutic efficacy of topical iododeoxyuridine for herpes simplex virus infection. Journal of investigative dermatology, 89(6), 598-602). The next 20 pieces of tapes were added into bottles containing 10 mL of extraction fluid. The epidermis was removed from the dermis and cut into small pieces by scalpels, placed in bottles containing 2 mL of extraction fluid. Furthermore, the dermis was cut into small pieces and was placed in bottles containing 2 mL of extraction fluid. […]

[4] = physchem; format: physicochemical; details: 22 °C, organic solvent or mixture, thermodynamic from solid, HPLC
Method: as §1
HPLC analysis was conducted using an HPLC system consisting of an auto-sample injector (Jasco AS-4050, Japan), a pump (Jasco PU-4180, Japan), and a photodiode array detector (Jasco MD-4017, Japan). The data was collected and analysed using the ChromNAV software. […]

[5] = set-up: species or system porcine
Method: To verify the percentage of drug that could be recovered from each layer of the skin, each layer was isolated for a 2.19±0.21 cm^2 piece of skin, the drug was spiked into each layer, it was incubated and then recovered. For the SC tape stripping as described above was used to isolate the skin layer. A total of 20 pieces of tape were used to remove the SC and these strips were added into sample bottles. The epidermis was removed from the dermis, cut into small pieces, and placed into bottles. The test solutions were spiked (500 μL) into a sample bottle containing the SC and (200 μL) into the sample bottles containing the epidermis and dermis. The samples containing the spiked drugs were left for 1 h for the drugs to absorb into the tissues. After the 1 h incubation period, 10 mL of extraction fluid (PG:EtOH, 50:50 for cholecalciferol and MeOH:water, 90:10 for cholecalciferol phosphate) was added into SC, and 2 mL of extraction fluid was added into epidermis and dermis then incubated in a shaking water bath overnight at 32° C. The solutions with both epidermis and dermis were then homogenised by Ultra Turrax for 1 min and filtered using 0.2 μm syringe filters and analysed by HPLC method.

| SMILES | solubility [1] | solubility ([2]; organic solvent or mixture) | solubility ([2]; water) | deposition in the dermis compared with cholecalciferol [3] | deposited in the skin ([3]; pig, 24 h, 2.5 mg/mL) | deposition in the SC ([3]; pig, 24 h, 2.5 mg/mL) | deposition in the epidermis ([3]; pig, 24 h, 2.5 mg/mL) | skin deposition, times more than the cholecalciferol ([3]; pig, 24 h, 2.5 mg/mL) | total penetration into / deposited in the skin ([3]; 2.5 mg/mL, 24 h) | transdermal penetration, passed all the way through the skin ([3]; vehicle PG, 24 h) | solubility [4] | solubility ([2]; oil or lipid) | total recovery from the skin permeation experiments ([3]; pig, 24 h, 2.5 mg/mL) | recovery at 24 h, 2.5 mg/mL ([3]; pig, total recovery from the skin permeation experiments) | total penetration into the skin ([3]; vehicle PG:EtOH (50:50), 24 h) | deposition in the SC ([3]; vehicle PG, 24 h) | deposition in the epidermis ([3]; vehicle PG, 24 h) | % Recovery, drug extraction validation, Epidermis [5] |
| --- | --- | --- | --- | --- | --- | --- | --- | --- | --- | --- | --- | --- | --- | --- | --- | --- | --- | --- |
| C=C1CC[C@H](OP(=O)(O)O)C/C1=C/C=C1\CCC[C@@]2(C)C1CC[C@@H]2[C@H](C)CCCC(C)C (some centres unmarked) [Cholecalciferol phosphate disodium salt, cholecalciferol phosphate disodium salt] | 78.7 mg/mL | < 2000 µg/mL | < 2500 µg/mL | not statistically different | 29.59±9.44 μg/cm^2 | 50.15±8.20 μg/cm^2 | 113.96±18.79 μg/cm^2 | 1.97 times | 189.99±29.10 μg/cm^2 | 50.50±6.40 μg/cm^2 | 3700 µg/mL |  |  |  |  |  |  |  |
| C=C1CC[C@H](O)C/C1=C/C=C1\CCC[C@]2(C)[C@@H]([C@H](C)CCCC(C)C)CC[C@@H]12 [Cholecalciferol, cholecalciferol, reference compound] |  |  |  |  |  |  |  |  | 96.51±17.88 μg/cm^2 | did not pass through the tissue |  | > 25000 µg/mL | 80% | 61% | 80.63±13.23 μg/cm^2 | 1.79±1.80 μg/cm^2 | 40.13±24.26 μg/cm^2 | 104.86 ± 0.54% |
